In PubChem BioAssay AID1963835 (Molecular Pharmacology Branch, DTP, NCI, 2024):

Test system: 699152-130-R-J1-PDC complex spheroid viability
Assay: Anticancer human tumor 699152-130-R-J1-PDC patient-derived pancreatic carcinoma cell line growth inhibition [POLQ]
Settings: for IC50: curve of first compound; for viability, T/C: stronger effect = lower value; active means viability on the fitted dose curve at most 10% of control; inactive means the rest
Procedure, shortened: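 Growth inhibition in 3D: complex spheroids (tumor PDC, HUVEC, MSC) treated with POLQ inhibitor combinations; where Cmax unknown, highest tested concentration 10 microM, except SN-38 at 1 microM.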

[1] = second compound 0.0316 µM, first compound 0.0316 µM
[2] = second compound 0.0316 µM, first compound 0.1 µM
[3] = second compound 0.0316 µM, first compound 0.316 µM
[4] = second compound 0.0316 µM, first compound 1 µM
[5] = second compound 0.0316 µM, first compound 3.16 µM
[6] = second compound 0.0316 µM, first compound 10 µM
[7] = second compound 0.1 µM, first compound 0.0316 µM
[8] = second compound 0.1 µM, first compound 0.1 µM
[9] = second compound 0.1 µM, first compound 0.316 µM
[10] = second compound 0.1 µM, first compound 1 µM
[11] = second compound 0.1 µM, first compound 3.16 µM
[12] = second compound 0.1 µM, first compound 10 µM
[13] = second compound 0.316 µM, first compound 0.0316 µM
[14] = second compound 0.316 µM, first compound 0.1 µM
[15] = second compound 0.316 µM, first compound 0.316 µM
[16] = second compound 0.316 µM, first compound 1 µM
[17] = second compound 0.316 µM, first compound 3.16 µM
[18] = second compound 0.316 µM, first compound 10 µM
[19] = second compound 1 µM, first compound 0.0316 µM
[20] = second compound 1 µM, first compound 0.1 µM
[21] = second compound 1 µM, first compound 0.316 µM
[22] = second compound 1 µM, first compound 1 µM
[23] = second compound 1 µM, first compound 3.16 µM
[24] = second compound 1 µM, first compound 10 µM
[25] = second compound 3.16 µM, first compound 0.0316 µM
[26] = second compound 3.16 µM, first compound 0.1 µM
[27] = second compound 3.16 µM, first compound 0.316 µM
[28] = second compound 3.16 µM, first compound 1 µM
[29] = second compound 3.16 µM, first compound 3.16 µM
[30] = second compound 3.16 µM, first compound 10 µM
[31] = second compound 10 µM, first compound 0.0316 µM
[32] = second compound 10 µM, first compound 0.1 µM
[33] = second compound 10 µM, first compound 0.316 µM
[34] = second compound 10 µM, first compound 1 µM
[35] = second compound 10 µM, first compound 3.16 µM
[36] = second compound 10 µM, first compound 10 µM
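Further: spheroids exposed to agents for 7 days before viability reading.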
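Wherever viability, T/C is given: percent of DMSO vehicle control viability so 100% = vehicle and 0% = no viable signal.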

CC1COCCN1c1cc(-c2ccnn2C)c2ccnc(-c3ccn[nH]3)c2n1 (stereo not given) + Cc1cccc(N(C)C(=O)C2C(O)CCN2c2nc(C)cc(C(F)(F)F)c2C#N)c1
3.97 µM: IC50 (second compound 0.316 µM)
> 10 µM: IC50 (second compound 0.1 µM) | IC50 (second compound 3.16 µM) | IC50 (second compound 10 µM)
inactive: viability, T/C [1] 98.3% | viability, T/C [2] 99.1% | viability, T/C [3] 74.4% | viability, T/C [4] 58% | viability, T/C [5] 47.8% | viability, T/C [6] 45.4% | viability, T/C [7] 93.9% | viability, T/C [8] 90.3% | viability, T/C [9] 75.2% | viability, T/C [10] 59.4% | viability, T/C [11] 62.2% | viability, T/C [12] 56.1% | viability, T/C [13] 92.2% | viability, T/C [14] 86.8% | viability, T/C [15] 75.5% | viability, T/C [16] 58.6% | viability, T/C [17] 46.3% | viability, T/C [18] 51.8% | viability, T/C [19] 107% | viability, T/C [20] 89% | viability, T/C [21] 70.9% | viability, T/C [22] 59% | viability, T/C [23] 50.2% | viability, T/C [24] 48.8% | viability, T/C [25] 109% | viability, T/C [26] 108% | viability, T/C [27] 69.4% | viability, T/C [28] 55.2% | viability, T/C [29] 51.1% | viability, T/C [30] 51.3% | viability, T/C [31] 94.7% | viability, T/C [32] 86.5% | viability, T/C [33] 75.8% | viability, T/C [34] 65.4% | viability, T/C [35] 52.6% | viability, T/C [36] 53.8%
2.33 µM: IC50 (second compound 0.0316 µM)
5.14 µM: IC50 (second compound 1 µM)

COc1cc(C2c3cc4c(cc3C(OC3OC5COC(C)OC5C(O)C3O)C3COC(=O)C23)OCO4)cc(OC)c1O (stereo not given) + Nc1ccc(C#CCN(C(=O)Cc2ncc(C(F)(F)F)cc2C(F)(F)F)c2ccc(F)cc2)nn1
8.26 µM: IC50 (second compound 10 µM)
6.31 µM: IC50 (second compound 3.16 µM)
3.86 µM: IC50 (second compound 0.316 µM)
inactive: viability, T/C [1] 85.2% | viability, T/C [2] 84.2% | viability, T/C [3] 79.5% | viability, T/C [4] 76.3% | viability, T/C [5] 53.9% | viability, T/C [6] 50.1% | viability, T/C [7] 105% | viability, T/C [8] 89% | viability, T/C [9] 77.9% | viability, T/C [10] 70.5% | viability, T/C [11] 52.5% | viability, T/C [12] 44.9% | viability, T/C [13] 108% | viability, T/C [14] 90.6% | viability, T/C [15] 79.8% | viability, T/C [16] 69.1% | viability, T/C [17] 48.1% | viability, T/C [18] 41.2% | viability, T/C [19] 92.2% | viability, T/C [20] 81.9% | viability, T/C [21] 78% | viability, T/C [22] 74.9% | viability, T/C [23] 49.6% | viability, T/C [24] 48.8% | viability, T/C [25] 103% | viability, T/C [26] 85% | viability, T/C [27] 81% | viability, T/C [28] 69.2% | viability, T/C [29] 53.1% | viability, T/C [30] 46.8% | viability, T/C [31] 115% | viability, T/C [32] 85.6% | viability, T/C [33] 89.4% | viability, T/C [34] 65.8% | viability, T/C [35] 53% | viability, T/C [36] 50.7%
9.72 µM: IC50 (second compound 0.0316 µM)
4.26 µM: IC50 (second compound 1 µM)
5.57 µM: IC50 (second compound 0.1 µM)

CC1COCCN1c1cc(-c2ccnn2C)c2ccnc(-c3ccn[nH]3)c2n1 (stereo not given) + COC1C(OC(N)=O)C(O)C(Oc2ccc3c(O)c(NC(=O)c4ccc(O)c(CC=C(C)C)c4)c(=O)oc3c2C)OC1(C)C
8.54 µM: IC50 (second compound 0.316 µM)
inactive: viability, T/C [1] 94.7% | viability, T/C [2] 101% | viability, T/C [3] 71.5% | viability, T/C [4] 57.2% | viability, T/C [5] 58.6% | viability, T/C [6] 53.3% | viability, T/C [7] 104% | viability, T/C [8] 97.1% | viability, T/C [9] 71.1% | viability, T/C [10] 57.1% | viability, T/C [11] 57% | viability, T/C [12] 47% | viability, T/C [13] 104% | viability, T/C [14] 99.9% | viability, T/C [15] 66% | viability, T/C [16] 56.4% | viability, T/C [17] 63.1% | viability, T/C [18] 47.5% | viability, T/C [19] 99.2% | viability, T/C [20] 93.3% | viability, T/C [21] 67.3% | viability, T/C [22] 64% | viability, T/C [23] 55.5% | viability, T/C [24] 51.5% | viability, T/C [25] 96.3% | viability, T/C [26] 85.3% | viability, T/C [27] 76.8% | viability, T/C [28] 56.1% | viability, T/C [29] 56.1% | viability, T/C [30] 52.6% | viability, T/C [31] 102% | viability, T/C [32] 80.8% | viability, T/C [33] 65.6% | viability, T/C [34] 56.5% | viability, T/C [35] 58.3% | viability, T/C [36] 50%
> 10 µM: IC50 (second compound 0.0316 µM) | IC50 (second compound 0.1 µM) | IC50 (second compound 1 µM) | IC50 (second compound 3.16 µM) | IC50 (second compound 10 µM)

O=C(c1cc(Cc2n[nH]c(=O)c3ccccc23)ccc1F)N1CCN(C(=O)C2CC2)CC1 + COC1C(OC(N)=O)C(O)C(Oc2ccc3c(O)c(NC(=O)c4ccc(O)c(CC=C(C)C)c4)c(=O)oc3c2C)OC1(C)C
< 0.0316 µM: IC50 (second compound 0.0316 µM) | IC50 (second compound 0.1 µM) | IC50 (second compound 0.316 µM) | IC50 (second compound 1 µM) | IC50 (second compound 3.16 µM) | IC50 (second compound 10 µM)
inactive: viability, T/C [1] 38.8% | viability, T/C [2] 37.8% | viability, T/C [3] 35.3% | viability, T/C [4] 40.3% | viability, T/C [5] 35.7% | viability, T/C [6] 34% | viability, T/C [7] 42.7% | viability, T/C [8] 37.2% | viability, T/C [9] 38.5% | viability, T/C [10] 43.9% | viability, T/C [11] 37.2% | viability, T/C [12] 29.8% | viability, T/C [13] 40% | viability, T/C [14] 41.5% | viability, T/C [15] 40.6% | viability, T/C [16] 36.5% | viability, T/C [17] 33.6% | viability, T/C [18] 32.3% | viability, T/C [19] 41.6% | viability, T/C [20] 39.7% | viability, T/C [21] 36.9% | viability, T/C [22] 37.4% | viability, T/C [23] 39.6% | viability, T/C [24] 35.1% | viability, T/C [25] 39% | viability, T/C [26] 42.9% | viability, T/C [27] 41.3% | viability, T/C [28] 40.7% | viability, T/C [29] 36.8% | viability, T/C [30] 36.9% | viability, T/C [31] 38.3% | viability, T/C [32] 36.2% | viability, T/C [33] 36.2% | viability, T/C [34] 40.2% | viability, T/C [35] 42.9% | viability, T/C [36] 31.1%

CC(C)n1c(=O)n(C)c2cnc3cc(F)c(-c4ccc(OCCCN5CCCCC5)nc4)cc3c21 + Cc1cccc(N(C)C(=O)C2C(O)CCN2c2nc(C)cc(C(F)(F)F)c2C#N)c1
inactive: viability, T/C [1] 94.9% | viability, T/C [2] 98.5% | viability, T/C [3] 100% | viability, T/C [4] 110% | viability, T/C [5] 107% | viability, T/C [6] 83.2% | viability, T/C [7] 97.3% | viability, T/C [8] 101% | viability, T/C [9] 112% | viability, T/C [10] 109% | viability, T/C [11] 104% | viability, T/C [12] 98.3% | viability, T/C [13] 111% | viability, T/C [14] 94.2% | viability, T/C [15] 104% | viability, T/C [16] 118% | viability, T/C [17] 114% | viability, T/C [18] 94.8% | viability, T/C [19] 113% | viability, T/C [20] 116% | viability, T/C [21] 98.7% | viability, T/C [22] 121% | viability, T/C [23] 113% | viability, T/C [24] 87.3% | viability, T/C [25] 104% | viability, T/C [26] 116% | viability, T/C [27] 103% | viability, T/C [28] 104% | viability, T/C [29] 112% | viability, T/C [30] 78.7% | viability, T/C [31] 98.1% | viability, T/C [32] 84.4% | viability, T/C [33] 123% | viability, T/C [34] 111% | viability, T/C [35] 106% | viability, T/C [36] 84.7%
> 10 µM: IC50 (second compound 0.0316 µM) | IC50 (second compound 0.1 µM) | IC50 (second compound 0.316 µM) | IC50 (second compound 1 µM) | IC50 (second compound 3.16 µM) | IC50 (second compound 10 µM)
